Results: patent US8389739B1, “Modulators of retinoid-related orphan receptor gamma” (Orphagen Pharmaceuticals, priority 2006, dated 2013)
Where two headings read alike, the source gives them in different places.

Legend:
mRORγ = biological target: T1, mRORγ (Mus musculus, UniProt P51450); assay: Transcriptional assay, Gal4-mRORγ with luciferase reporter in CHO cells; assay type: cell-based
T1 construct: expressed in transfected cells; host or cells: CHO cells, transient transfection
Experimental: The complete Gal4-mRORγ nucleotide sequence is shown below:
(§1) A firefly luciferase reporter gene for Gal4 DBD hybrid receptors, such as Gal4-RORγ, contains five copies of the Gal4 17-mer response element in its promoter and the coding sequence for firefly luciferase (pG5-luc, Promega). CHO (Chinese Hamster Ovary) cells were cultured in Ham's F12 medium supplemented with 10% fetal calf serum (Gemini Biologicals), 10 μg/ml penicillin and streptomycin, and were maintained in a humidified 37° C. incubator (Thermo Electron, Steri-Cycle) with 5% CO2. 24 hours before transfection, cells were plated in T175 flasks (5×10^6 cells/flask) or T75 flasks (1.7×10^6 cells/flask). Transient transfection of CHO cells was performed using TransIT-CHO reagents (Minis, Madison, Wis.) with a mixing ratio of 2:6:1 between plasmid DNA (in μg), TransIT-CHO (in μl) and CHO-mojo (in μl).
(§2) Plates are maintained at 37° C. in a humidified atmosphere with 7% CO2 overnight. Four (4) hours after cell seeding, compounds dissolved in DMSO at 10 mM were added to cells at final concentrations of 20 micromolar (μM) to 20 nanomolar (nM) in 0.2% DMSO in triplicate plates. Approximately 40 hours later, cytotoxicity in the assay well was characterized by addition of the dye resazurin (O'Brien, Wilson et al. 2000) to a final concentration of 3 μM. […] Percent viability was determined as 2 hour fluorescence, minus background at t=0 hours, normalized to DMSO controls. For detection of luciferase activity, media was removed from plates after the measurement of resazurin conversion, and SteadyLite luciferase reagent (Perkin-Elmer) was added (30 μl/well). Luminescence is detected with a Victor 2-V plate reader (Perkin-Elmer) and normalized to luciferase activity of DMSO control wells alone.

mRORγ LBD = biological target: T2, mRORγ LBD (Mus musculus, UniProt P51450); assay: Biochemical assay, coregulatory peptide recruitment to GST-RORγ LBD (FRET)
T2 construct: made in house; host or cells: Sf9 insect cells, baculovirus; cleared lysate used directly
T2 sequence (P51450 251-516): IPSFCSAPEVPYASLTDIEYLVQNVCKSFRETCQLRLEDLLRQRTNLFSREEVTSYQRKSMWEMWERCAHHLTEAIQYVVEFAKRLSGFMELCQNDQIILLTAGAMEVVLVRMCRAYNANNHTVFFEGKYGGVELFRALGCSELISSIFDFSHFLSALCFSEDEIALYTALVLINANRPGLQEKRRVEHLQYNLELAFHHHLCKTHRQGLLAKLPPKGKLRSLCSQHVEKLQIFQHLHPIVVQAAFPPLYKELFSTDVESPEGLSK
From the text: GST-RORγ was generated by subcloning the RORγ-LBD into pET-41a, a vector which expresses GST fusion proteins in bacteria.
The cloning steps for GST-RORγ were as follows. The mRORγ LBD was excised from Gal4-mRORγ (see above for cloning steps) at BamHI and HindIII sites of Sequence 1 and cloned into the corresponding sites of pET-41a(+) (EMD Biosciences, San Diego, Calif.). A GST-mRORγ fragment was then excised from pET-41a(+) at XbaI and XhoI sites and cloned into a pcDNA3.1vector (Invitrogen, Carlsbad, Calif.) restricted at NheI and XhoI sites. Plasmid GST-mRORγ-pcDNA3.1 was used as a PCR template to generate a GST-mRORγ fragment that was later cloned into pENTR/D-TOPO vector (Invitrogen, Carlsbad, Calif.) by standard cloning techniques recommended by the manufacturer of the vector. The nucleotide sequence of GST-mRORγ is shown below:
For baculoviral expression of RORγ, the cDNA fragment of GST-RORγ— LBD, was subcloned from pET-41a into the pENTR/D-TOPO vector using a commercially-available kit (BaculoDirect, Invitrogen). Briefly, GST-RORγ carried by pENTR/D-TOPO was transfected into mono-layer Sf9 cells (8×10^5/well in 6-well plates) by Cellfectin (Invitrogen). Sf9 cells were incubated at 27° C. in a non-humidified incubator for 72 hours. Cell media was collected as P1 viral stock and used to further infect Sf9 cells to generate P2 and P3 virus. […] A plaque assay was performed to determine the titer of P3 virus and to isolate single plaques. P4 virus was generated from a single plaque and propagated on a larger scale.
Adherent SF9 cells were infected with baculovirus carrying GST-RORγ and were cultured for 72 hours. Sf9 cell were then subject to a brief sonication in a lysis buffer (20 mM phosphate, pH 6.8, 50 mM KCl, 50 mM NaCl, 0.5 mM EDTA, 50% glycerol, 0.001% NP-40 and 1 mM DTT) and centrifuged at 3000 rpm for 15 minutes. […] Cleared cell lysate was stored at −70° C. and is directly utilized in the coregulatory peptide recruitment assay.
The labeled probes anti-GST-APC and SA-RPE were purchased from Prozyme (San Leandro, Calif.). Compounds were added directly from a DMSO solution to a final concentration of 1-2% DMSO. Fluorescence was measured on a Wallac Victor 2 V plate reader equipped with a 670/40 nm filter (Omega Optical, Brattleboro, Vt.) for APC emission (Channel A) and a 600/25 bandpass filter for monitoring the RPE emission (Channel B).

[1] = biological target: T3, mLXRα (Liver X receptor alpha) (Mus musculus, UniProt Q9Z0Y9); assay: Transcriptional assay of LXRα (Gal4-LXRα hybrid); assay type: cell-based; details: for EC50: Table 7, no unit printed for this column (b114 gives 1.5 μM for OR-1050), read-out: Transcriptional Assay of LXRα EC50
T3 construct: 172-455; expressed in transfected cells; host or cells: CHO cells, transient transfection
T3 sequence (Q9Z0Y9 172-445 limits assumed): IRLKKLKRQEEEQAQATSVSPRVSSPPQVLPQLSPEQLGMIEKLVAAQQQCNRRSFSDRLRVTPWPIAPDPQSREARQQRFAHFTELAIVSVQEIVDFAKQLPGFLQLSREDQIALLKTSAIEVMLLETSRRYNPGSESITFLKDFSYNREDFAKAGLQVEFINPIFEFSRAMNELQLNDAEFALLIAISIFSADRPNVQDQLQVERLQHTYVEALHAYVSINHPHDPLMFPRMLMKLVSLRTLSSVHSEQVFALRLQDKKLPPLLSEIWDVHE
Experimental: as §1, §2
A transcriptional assay for LXRα, using a Gal4-LXRα hybrid, was implemented in order to compare RORγ ligand potencies. In addition to LXRα, transcriptional assays for a number of other major nuclear receptors were developed.

[2] = Table 1, antagonists, inhibition of basal Gal4-mRORγ transcription in CHO cells, read-out: Assay EC50 in micromolar at mRORγ Transcriptional
[3] = Table 7, taken from Table 1, read-out: Assay EC50 in micromolar at mRORγ Transcriptional
[4] = Table 1, mRORγ and peptide K1, read-out: Assay EC50 in micromolar at mRORγ Biochemical
[5] = Table 7, taken from Table 1 (peptide K1), read-out: Assay EC50 in micromolar at mRORγ Biochemical
[6] = Table 2, agonists, antagonist OR-376 (1.5 μM) added to reduce basal transcriptional activity, read-out: EC50 in micromolar at mRORγ Transcriptional
[7] = Table 2, agonists, biotinylated peptide K, 50% of estimated maximum FRET signal, read-out: EC50 in micromolar at mRORγ Biochemical

T1 sequence (P51450 with tags, fused parts or gaps): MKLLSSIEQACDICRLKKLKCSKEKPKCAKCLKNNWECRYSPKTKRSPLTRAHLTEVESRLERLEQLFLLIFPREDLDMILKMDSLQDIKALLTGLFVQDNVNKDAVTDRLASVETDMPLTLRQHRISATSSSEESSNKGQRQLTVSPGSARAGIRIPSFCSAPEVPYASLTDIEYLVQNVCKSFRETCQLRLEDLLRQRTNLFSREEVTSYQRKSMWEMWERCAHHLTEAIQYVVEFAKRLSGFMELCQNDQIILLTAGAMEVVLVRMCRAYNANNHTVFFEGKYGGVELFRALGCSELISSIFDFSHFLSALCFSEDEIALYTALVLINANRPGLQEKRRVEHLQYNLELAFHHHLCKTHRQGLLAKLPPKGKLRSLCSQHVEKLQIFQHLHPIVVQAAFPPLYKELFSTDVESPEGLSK

CCN(c1ccc(C(OC)(C(F)(F)F)C(F)(F)F)cc1)S(=O)(=O)c1ccccc1 [OR-1030, N-Ethyl-N-[4-(2,2,2-trifluoro-1-methoxy-1-trifluoromethyl-ethyl)-phenyl]-benzenesulfonamide]
EC50 (mRORγ; [2]): > 20 µM | EC50 (mRORγ; [3]): > 20 µM | EC50 (mRORγ LBD; [4]): > 100 µM | EC50 (mRORγ LBD; [5]): > 100 µM | Emax [1]: < 5% | EC50 [1]: > 100 µM

CC(=O)CCC(C)C1CCC2C3CC(O)C4CC(O)CCC4(C)C3CCC12C (stereo not shown) [OR-12870, 5-(3,6-Dihydroxy-10,13-dimethyl-hexadecahydro-cyclopenta[a]phenanthren-17-yl)-hexan-2-one]
EC50 (mRORγ; [6]): 4.1 µM

CC(O)CCC(C)C1CCC2C3CC(O)C4CC(O)CCC4(C)C3CCC12C (stereo not shown) [OR-12871, 17-(4-Hydroxy-1-methyl-pentyl)-10,13-dimethyl-hexadecahydro-cyclopenta[a]phenanthrene-3,6-diol]
EC50 (mRORγ; [6]): 8.3 µM | EC50 (mRORγ LBD; [7]): 0.25 µM

CC(CCC(=O)N1CCCCC1)C1CCC2C1CCC1C3CCC(O)CC3C(O)CC21 (stereo not shown) [OR-12869, 4-(3,6-Dihydroxy-hexadecahydro-cyclopenta[a]phenanthren-17-yl)-1-piperidin-1-yl-pentan-1-one]
EC50 (mRORγ; [6]): > 20 µM

COCCCC(C)C1CCC2C3CC(O)C4CC(O)CCC4(C)C3CCC12C (stereo not shown) [OR-12864, 17-(4-Methoxy-1-methyl-butyl)-10,13-dimethyl-hexadecahydro-cyclopenta[a]phenanthrene-3,6-diol]
EC50 (mRORγ; [6]): 6 µM | EC50 (mRORγ LBD; [7]): 0.23 µM

COC(=O)CCC(C)C1CCC2C3CC(O)C4CC(O)CCC4(C)C3CCC12C (stereo not shown) [OR-942, 4-(3,6-Dihydroxy-10,13-dimethyl-hexadecahydro-cyclopenta[a]phenanthren-17-yl)-pentanoic acid methyl ester]
EC50 (mRORγ; [6]): 1.5 µM | activation of RORγ transcriptional activity (mRORγ; in the presence of one micromolar antagonist T0901317, CHO cells (FIG. 4A)): approximately 8 fold | EC50 (mRORγ LBD; GST-RORγ and peptide K, in the presence of antagonist T0901317 (FIG. 5), read-out: estimated EC50 in biochemical assay, shifted by antagonist): 4 µM | EC50 (mRORγ LBD; GST-RORγ and peptide K, without T0901317 (FIG. 5), read-out: estimated EC50 in biochemical assay): 0.4 µM | EC50 (mRORγ LBD; [7]): 0.12 µM

O=C(O)CN(c1ccc(C(O)(C(F)(F)F)C(F)(F)F)cc1)S(=O)(=O)c1ccccc1 [OR-1046, {Benzenesulfonyl-[4-(2,2,2-trifluoro-1-hydroxy-1-trifluoromethyl-ethyl)-phenyl]-amino}-acetic acid]
EC50 (mRORγ; [2]): > 20 µM | EC50 (mRORγ; [3]): > 20 µM | EC50 (mRORγ LBD; [4]): > 100 µM | EC50 (mRORγ LBD; [5]): > 100 µM | Emax [1]: < 5% | EC50 [1]: > 100 µM

CCN(c1ccc(C(O)(C(F)(F)F)C(F)(F)F)cc1)S(=O)(=O)c1ccc(C)cc1 [OR-1052, N-Ethyl-4-methyl-N-[4-(2,2,2-trifluoro-1-hydroxy-1-trifluoromethyl-ethyl)-phenyl]-benzenesulfonamide]
EC50 (mRORγ; [2]): 0.21 µM | EC50 (mRORγ; [3]): 0.21 µM | EC50 (mRORγ LBD; [4]): 0.89 µM | EC50 (mRORγ LBD; [5]): 0.89 µM | Emax [1]: > 80% | EC50 [1]: 0.81 µM | specificity for RORγ versus LXRα ([1]; comparison of transcriptional assays for RORγ and LXRα (Table 7)): more specific for RORγ than LXRα

CNC(=O)CCC(C)C1CCC2C1CCC1C3CCC(O)CC3C(O)CC21 (stereo not shown) [OR-12867, 4-(3,6-Dihydroxy-hexadecahydro-cyclopenta[a]phenanthren-17-yl)-pentanoic acid methylamide]
EC50 (mRORγ; [6]): > 20 µM

C[C@@H]1CC[C@@]2(OC1)O[C@H]1C[C@H]3[C@@H]4CC[C@H]5C[C@@H](O)CC[C@]5(C)[C@H]4C(=O)[C@@H](O)[C@]3(C)[C@H]1[C@@H]2C [OR-345, 5α, 20α, 22α, 25D-SPIROSTAN-3β, 12β-DIOL-11-ONE]
EC50 (mRORγ; Table 3, steroidal antagonists, read-out: Assay EC50 in micromolar transcriptional): 5 µM | EC50 (mRORγ LBD; Table 3, peptide K and 1 μM OR-942, inhibition of the OR-942 baseline by 50%, read-out: Assay EC50 in micromolar biochemical): 12.7 µM

CC(CCC(=O)O)C1CCC2C1CCC1C3CCC(O)CC3C(O)CC21 (stereo not shown) [OR-412, 4-(3,6-Dihydroxy-hexadecahydro-cyclopenta[a]phenanthren-17-yl)-pentanoic acid]
EC50 (mRORγ; [6]): > 20 µM | EC50 (mRORγ LBD; [7]): > 100 µM

CC(CCC(=O)N(C)C)C1CCC2C3CC(O)C4CC(O)CCC4(C)C3CCC12C (stereo not shown) [OR-12868, 4-(3,6-Dihydroxy-10,13-dimethyl-hexadecahydro-cyclopenta[a]phenanthren-17-yl)-pentanoic acid dimethylamide]
EC50 (mRORγ; [6]): 5.2 µM | EC50 (mRORγ LBD; [7]): 0.56 µM

CC(CCCO)C1CCC2C3CC(O)C4CC(O)CCC4(C)C3CCC12C (stereo not shown) [OR-12863, 17-(4-Hydroxy-1-methyl-butyl)-10,13-dimethyl-hexadecahydro-cyclopenta[a]phenanthrene-3,6-diol]
EC50 (mRORγ; [6]): 4.1 µM | EC50 (mRORγ LBD; [7]): 0.67 µM

CC(CCC(C)(C)O)C1CCC2C3CC(O)C4CC(O)CCC4(C)C3CCC12C (stereo not shown) [OR-12865, 17-(4-Hydroxy-1,4-dimethyl-pentyl)-10,13-dimethyl-hexadecahydro-cyclopenta[a]phenanthrene-3,6-diol]
EC50 (mRORγ; [6]): 8.3 µM | EC50 (mRORγ LBD; [7]): 0.21 µM

COC(C)(C)CCC(C)C1CCC2C3CC(O)C4CC(O)CCC4(C)C3CCC12C (stereo not shown) [OR-12866, 17-(4-Methoxy-1,4-dimethyl-pentyl)-10,13-dimethyl-hexadecahydro-cyclopenta[a]phenanthrene-3,6-diol]
EC50 (mRORγ; [6]): 0.56 µM | EC50 (mRORγ LBD; [7]): 0.14 µM
